“And” between values parts separate entries of the source, which are not always exact repeats. Equal entries are not always repeated.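 Five concentrations, 48 hours, 96-well plates. GI50 marks 50% less growth. TGI is the concentration that stops growth completely.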
Legend:
Test in all cases: NCI tumour cell line growth inhibition, 48 h
[1] = tested on: P388 leukemia
[2] = tested on: XF 498 CNS
[3] = tested on: HOP-18 NSCLC
[4] = tested on: KM20L2 colon
[5] = tested on: DLD-1 colon
[6] = tested on: LXFL 529 NSCLC
[7] = tested on: P388/ADR leukemia
[8] = tested on: SNB-78 CNS
[9] = tested on: DMS 114 small cell lung
[10] = tested on: MDA-N
[11] = tested on: RXF-631 renal

Row | SMILES | GI50 [1] | TGI [1] | GI50 [2] | TGI [2] | GI50 [3] | TGI [3] | GI50 [4] | TGI [4] | GI50 [5] | TGI [5] | TGI [6] | GI50 [7] | TGI [7] | GI50 [8] | TGI [8] | GI50 [9] | TGI [9] | TGI [10] | TGI [11]
1 | N[C@@H](Cc1ccc(N(CCCl)CCCl)cc1)C(=O)O | 1.79 µM | 35.9 µM and 42.9 µM | 20.9 µM and 22 µM | 49.3 µM and 66.3 µM | 23.7 µM and 55.1 µM | 64.5 µM and 158 µM | 14 µM | > 31.6 µM and 193 µM | 24.5 µM | > 92 µM and 193 µM | 110 µM | 2.59 µM | 37.7 µM and 76.3 µM | 25.6 µM | 83.7 µM and 205 µM | 13 µM | 29.1 µM and 86.4 µM | 126 µM | 
2 | CC1(C)OC(=O)C(c2ccsc2)C(=O)O1 |  |  |  | > 100 µM |  | > 100 µM |  | > 100 µM |  | > 100 µM | > 100 µM |  |  |  | > 100 µM |  | > 100 µM |  | > 100 µM
3 | O=C(c1ccccc1)C(c1ccccc1)C1(O)C(=O)Nc2ccc(Br)cc21 (centres undefined) |  |  |  |  |  |  |  | > 100 µM |  | > 100 µM | 53.1 µM |  |  |  | > 100 µM |  | 50.5 µM |  | > 100 µM
4 | C[C@]12CC[C@H](O)CC1CCC[C@@H]2O (some centres undefined) |  |  |  | > 100 µM |  |  |  |  |  | > 100 µM | > 100 µM |  |  |  | > 100 µM |  | > 100 µM |  | > 100 µM
5 | c1ccc2c(c1)-c1nc3ccccc3cc1C2N1CCOCC1 (centres undefined) |  |  |  |  |  |  |  |  |  |  |  |  |  |  |  |  |  | > 100 µM | 
6 | O=C1C2Cc3ccccc3CN2C(=O)N1CCN1CCOCC1 (centres undefined) |  |  |  |  |  |  |  | > 100 µM |  | > 100 µM | > 100 µM |  |  |  |  |  | > 100 µM |  | > 100 µM
7 | O=c1c2ccc(Br)cc2nc(-c2ccccc2)n1NC1OC(CO)C(O)C(O)C1O (centres undefined) |  |  |  | > 100 µM |  | > 100 µM |  | > 100 µM |  |  | > 100 µM |  |  |  | > 100 µM |  | > 100 µM |  | 
8 | COc1ccc(/C=C/c2cnnc3ccccc23)cc1OC |  |  |  |  |  |  |  |  |  |  |  |  |  |  |  |  |  | > 10 µM | 
9 | COc1nc(C(Cl)(Cl)Cl)c(Cl)c(OC)c1Cl |  | 43 µM |  | 54.5 µM |  | 70.1 µM | 21 µM | 55.7 µM and 85.2 µM | 31.7 µM | 79.8 µM |  |  | 85.9 µM |  | 72.3 µM | 19.7 µM | 45.9 µM and 61.6 µM | 57.5 µM | 49.4 µM
10 | COc1cc(C2C(C(=O)Nc3ccccc3C)=C(C)NC(C)=C2C(=O)Nc2ccccc2C)ccc1O |  |  |  | > 100 µM |  | > 100 µM |  | > 100 µM |  | > 100 µM | > 100 µM |  |  |  | > 100 µM |  | > 100 µM |  | > 100 µM
11 | Cc1cc2c(C=O)[nH]nc2c(C#N)c1C |  |  |  |  |  |  |  | > 100 µM |  | > 100 µM | > 100 µM |  |  |  | > 100 µM |  | 99.3 µM |  | > 100 µM
12 | O=C(NCCOCCO)c1ccc(O)cc1 |  |  |  | > 100 µM |  | > 100 µM |  | > 100 µM |  | > 100 µM | > 100 µM |  |  |  |  |  | > 100 µM |  | 
13 | CCn1cc(C(=O)O)c(=O)c2cc(F)c(N3CCNCC3)nc21 |  |  |  |  |  | > 100 µM |  |  |  | > 100 µM | > 100 µM |  |  |  | > 100 µM |  | > 100 µM |  | > 100 µM
14 | CSc1nnc2n1-c1ccccc1SCC2 |  |  |  | > 100 µM |  | > 100 µM |  | > 100 µM |  | > 100 µM | > 100 µM |  |  |  | > 100 µM |  | > 100 µM |  | 
15 | CN=C(NC#N)NCc1ccccc1 |  |  |  | > 100 µM |  |  |  | > 100 µM |  | > 100 µM | > 100 µM |  |  |  | > 100 µM |  | > 100 µM |  | 
16 | CCCCCCCCCCCCCCCc1nc(SCC(=O)O)n[nH]1 |  |  |  | > 100 µM |  | > 100 µM |  |  |  | 56.1 µM | 66.4 µM |  |  |  | > 100 µM |  |  |  | > 100 µM

Source: PubChem BioAssay (NCI)
